As usually defined, the melting point is the temperature, or range, at which the solid turns liquid.

The source of these data is US10399978B2, “Imidazopyridine thioglycolic acid derivatives as potent inhibitors of human urate transporter 1” (SHANDONG UNIVERSITY, priority 2016, dated 2019).

In series [1] the test system is mice with acute hyperuricemia. The series is described as follows: In vivo activity of reducing serum uric acid (acute hyperuricemia induced with xanthine and potassium oxonate). Also on record: species or system Kunming mice. The following applies: for BUA (blood uric acid concentration): hyperuricemic Kunming mice; for anti-gout activity, compared with positive control benzbromarone: batch 1, conclusion from Table 2. The protocol:
All newly synthesized target compounds were primarily evaluated for their activities of reducing blood uric acid in vivo (mice). Benzbromarone and lesinurad were selected as positive control drugs.
Example 46. In Vivo Activity of Reducing Serum Uric Acid
• (1) Experimental animal: Kunming mice, provided by Experimental Animal Center of Shandong University • (2) Preparation of compounds: Compounds were dissolved in ethanol and CMC-Na. • (3) Modeling drugs: Xanthine and potassium oxonate • (4) Reference drugs: Benzbromarone and Lesinurad • (5) Test method: The model group consisted of mice with acute hyperuricemia induced with 0.2 mL xanthine intragastric injection and 0.2 mL potassium oxonate subcutaneous injection, and not treated with test compound.

The mark [2] stands for this setting: batch 1, Model 1462.6 ± 194.3, Blank 377.2 ± 27.6.
Setting [3] is: batch 2, Model 576.5 ± 120.5, Blank 262 ± 43.6, Blank (CMC-Na) 286 ± 90.9.

In the case of `CCc1oc2ccccc2c1C(=O)c1cc(Br)c(O)c(Br)c1` [Benzbromarone, reference compound], the “BUA (blood uric acid concentration)” value in series [1] (setting [2]) worked out at 762.5 ± 30.3 µM.

Regarding `CCOC(=O)CSc1nc2cccnc2n1-c1cccc2ccccc12` [Compound M1], the melting point is 116.5 to 117 °C. The “BUA (blood uric acid concentration)” value in series [1] (setting [2]) stood at 1507.6 ± 229.2 µM.

In the case of `CCOC(=O)CCCSc1nc2cccnc2n1-c1cccc2ccccc12` [Compound M2], the “anti-gout activity, compared with positive control benzbromarone” value in series [1] is “significant anti-gout activity”. Besides, the “BUA (blood uric acid concentration)” value in series [1] (setting [2]) worked out at 634.7 ± 97.7 µM.

With `CCOC(=O)C(C)Sc1nc2cccnc2n1-c1cccc2ccccc12` (centres unmarked) [Compound M3], the “BUA (blood uric acid concentration)” value in series [1] (setting [2]) stood at 1321.5 ± 183.5 µM.

As to `CCOC(=O)C(C)(C)Sc1nc2cccnc2n1-c1cccc2ccccc12` [Compound M4], the “BUA (blood uric acid concentration)” value in series [1] (setting [2]) amounted to 1363 ± 184.7 µM.

On to `O=C(O)CSc1nc2cccnc2n1-c1cccc2ccccc12` [Compound M5], for which the melting point is 129 to 130 °C. Further, in series [1] (setting [2]), the “BUA (blood uric acid concentration)” value is 1307.5 ± 195.3 µM.

As to `O=C(O)CCCSc1nc2cccnc2n1-c1cccc2ccccc12` [Compound M6], in series [1] (setting [2]), the “BUA (blood uric acid concentration)” value was 1342 ± 144.3 µM.

On to `CC(Sc1nc2cccnc2n1-c1cccc2ccccc12)C(=O)O` (centres unmarked) [Compound M7], for which the “BUA (blood uric acid concentration)” value in series [1] (setting [2]) came to 1307.2 ± 133.1 µM.

Regarding `CC(C)(Sc1nc2cccnc2n1-c1cccc2ccccc12)C(=O)O` [Compound M8], the “BUA (blood uric acid concentration)” value in series [1] (setting [2]) was 1229 ± 150.2 µM.

Take `CCOC(=O)CSc1nc2cccnc2n1-c1ccc(C2CC2)c2ccccc12` [Compound Q1]: the “BUA (blood uric acid concentration)” value in series [1] (setting [2]) was found to be 1344.75 ± 287.5 µM.

Consider `CCOC(=O)CCCSc1nc2cccnc2n1-c1ccc(C2CC2)c2ccccc12` [Compound Q2], for which the “BUA (blood uric acid concentration)” value in series [1] (setting [2]) was 1422.6 ± 194.4 µM.

Turning to `CCOC(=O)C(C)Sc1nc2cccnc2n1-c1ccc(C2CC2)c2ccccc12` (centres unmarked) [Compound Q3], the “anti-gout activity, compared with positive control benzbromarone” value in series [1] was “significant anti-gout activity”. In addition, the “BUA (blood uric acid concentration)” value in series [1] (setting [2]) was 672 ± 76.2 µM.

Turning to `CCOC(=O)C(C)(C)Sc1nc2cccnc2n1-c1ccc(C2CC2)c2ccccc12` [Compound Q4], in series [1] (setting [2]), the “BUA (blood uric acid concentration)” value is 1328.2 ± 163.8 µM.

With `O=C(O)CSc1nc2cccnc2n1-c1ccc(C2CC2)c2ccccc12` [Compound Q5], in series [1] (setting [2]), the “BUA (blood uric acid concentration)” value came out at 824 ± 109.9 µM.

As to `O=C(O)CCCSc1nc2cccnc2n1-c1ccc(C2CC2)c2ccccc12` [Compound Q6], the “BUA (blood uric acid concentration)” value in series [1] (setting [2]) was found to be 1490.7 ± 269.9 µM.

Consider `CC(Sc1nc2cccnc2n1-c1ccc(C2CC2)c2ccccc12)C(=O)O` (centres unmarked) [Compound Q7], for which the “BUA (blood uric acid concentration)” value in series [1] (setting [2]) worked out at 763.2 ± 248.7 µM.

In the case of `CC(C)(Sc1nc2cccnc2n1-c1ccc(C2CC2)c2ccccc12)C(=O)O` [Compound Q8], the “BUA (blood uric acid concentration)” value in series [1] (setting [2]) amounted to 1448 ± 216.7 µM.

As for `CCOC(=O)CSc1nc2ncccc2n1-c1ccc(C2CC2)c2ccccc12` [Compound T1], in series [1] (setting [3]), the “BUA (blood uric acid concentration)” value was 353.5 ± 35.6 µM.

For `CCOC(=O)CCCSc1nc2ncccc2n1-c1ccc(C2CC2)c2ccccc12` [Compound T2], the “BUA (blood uric acid concentration)” value in series [1] (setting [3]) worked out at 334 ± 65.7 µM.

`CCOC(=O)C(C)Sc1nc2ncccc2n1-c1ccc(C2CC2)c2ccccc12` (centres unmarked) [Compound T3]: in series [1] (setting [3]), the “BUA (blood uric acid concentration)” value was determined as 339 ± 29.8 µM.

For `CCOC(=O)C(C)(C)Sc1nc2ncccc2n1-c1ccc(C2CC2)c2ccccc12` [Compound T4], in series [1] (setting [3]), the “BUA (blood uric acid concentration)” value was 306 ± 46.8 µM.

For the molecule `O=C(O)CSc1nc2ncccc2n1-c1ccc(C2CC2)c2ccccc12` [Compound T5], in series [1] (setting [3]), the “BUA (blood uric acid concentration)” value was 342 ± 44.1 µM.

For the molecule `O=C(O)CCCSc1nc2ncccc2n1-c1ccc(C2CC2)c2ccccc12` [Compound T6], the “BUA (blood uric acid concentration)” value in series [1] (setting [3]) came out at 330 ± 29.1 µM.

As for `CC(Sc1nc2ncccc2n1-c1ccc(C2CC2)c2ccccc12)C(=O)O` (centres unmarked) [Compound T7], in series [1] (setting [3]), the “BUA (blood uric acid concentration)” value turned out to be 189.7 ± 67.8 µM.

Consider `CC(C)(Sc1nc2ncccc2n1-c1ccc(C2CC2)c2ccccc12)C(=O)O` [Compound T8], for which, in series [1] (setting [3]), the “BUA (blood uric acid concentration)” value came out at 295.2 ± 54 µM.

For the molecule `CCOC(=O)CSc1nc2cccnc2n1-c1c(C)cc(C)cc1C` [Compound X1], the “BUA (blood uric acid concentration)” value in series [1] (setting [2]) was found to be 1255.2 ± 184 µM.

As for `CCOC(=O)CCCSc1nc2cccnc2n1-c1c(C)cc(C)cc1C` [Compound X2], the “BUA (blood uric acid concentration)” value in series [1] (setting [2]) came out at 1107.7 ± 195.1 µM.

Take `CCOC(=O)C(C)Sc1nc2cccnc2n1-c1c(C)cc(C)cc1C` (centres unmarked) [Compound X3]: the “BUA (blood uric acid concentration)” value in series [1] (setting [2]) was found to be 983.2 ± 122.6 µM.

Regarding `CCOC(=O)C(C)(C)Sc1nc2cccnc2n1-c1c(C)cc(C)cc1C` [Compound X4], the “anti-gout activity, compared with positive control benzbromarone” value in series [1] is on record as “significant anti-gout activity”. For the same molecule, the “BUA (blood uric acid concentration)” value in series [1] (setting [2]) worked out at 689.2 ± 53.4 µM.

As for `Cc1cc(C)c(-n2c(SCC(=O)O)nc3cccnc32)c(C)c1` [Compound X5], the “BUA (blood uric acid concentration)” value in series [1] (setting [2]) worked out at 1310.2 ± 155.8 µM.

In the case of `Cc1cc(C)c(-n2c(SCCCC(=O)O)nc3cccnc32)c(C)c1` [Compound X6], the “anti-gout activity, compared with positive control benzbromarone” value in series [1] is on record as “significant anti-gout activity”. Moreover, the “BUA (blood uric acid concentration)” value in series [1] (setting [2]) is 655.2 ± 210.8 µM.

Turning to `Cc1cc(C)c(-n2c(SC(C)C(=O)O)nc3cccnc32)c(C)c1` (centres unmarked) [Compound X7], the “anti-gout activity, compared with positive control benzbromarone” value in series [1] is on record as “significant anti-gout activity”. In addition, the “BUA (blood uric acid concentration)” value in series [1] (setting [2]) worked out at 727.2 ± 150.7 µM.

For `Cc1cc(C)c(-n2c(SC(C)(C)C(=O)O)nc3cccnc32)c(C)c1` [Compound X8], in series [1] (setting [2]), the “BUA (blood uric acid concentration)” value stood at 1288 ± 211.5 µM.

In the case of `O=C(O)CSc1nnc(Br)n1-c1ccc(C2CC2)c2ccccc12` [RDEA594, Lesinurad, reference compound], the “BUA (blood uric acid concentration)” value in series [1] (setting [3]) worked out at 409.5 ± 124.3 µM.
